The source of these data is publication PMC10800708, “Efficacies and ADME properties of redox active methylene blue and phenoxazine analogues for use in new antimalarial triple drug combinations with amino-artemisinins” (Frontiers in Pharmacology, 2024).

The nature of data set [1]: Lipophilicity, 1-octanol/phosphate buffer pH 7.4. The conditions noted are these: read-out: Lipophilicity LogD7.4. The format is physicochemical.
Procedure: Lipophilicity. Stock solutions (10 mM) of compounds were diluted to 100 μM in 96-well deep-well plate containing 300 µL of 1-octanol and 300 µL of phosphate buffer at pH 7.4. The plate was agitated on an orbital shaker at 750 rpm for 2 h. The organic and buffer layers of each well were transferred separately to a new analysis plate. The samples were analysed with the HPLC diode array detection as described for kinetic solubility. Samples from both layers were analysed to determine LogD7.4 values. • iii.
Data set [2] is described as follows: In vivo PK, iv and oral, whole blood. Details: species or system C57BL/6 mice. As to conditions: for Vd / clearance / half-life / Cmax / Tmax: C57BL/6, mouse; for Vd / clearance / half-life / AUC0-∞ / Oral Cmax relative to the IC50 value / BA: mice; for Cmax / Tmax: po, 5 mg/kg; for BA: oral bioavailability. The method, then: • i. Animals. […] Food and water were available ad libitum. Mice were acclimatised to the experimental environment for 4-5 days prior to initiating the experiments. • ii. Oral drug administration. AD01 and PhX6 were prepared in 100% Millipore […] prepared in an aqueous suspension of 0.5% HPMC (w/v) containing 0.2% Tween 80 (v/v). The weighed compounds were sonicated and vortexed to ensure all solutions were homogenous. […] The total volume per administration was 200 μL. Blood samples were collected post-dose in lithium heparin microvials via tail bleeding at predetermined intervals at 0.5, 1, 3, 5, 8, 10 and 24 h. Samples were gently vortexed and stored at -80°C until analysis. • iii. Intravenous administration. AD01 and PhX6 were prepared in 100% Millipore […] prepared in an organic vehicle consisting of 10% N,N-dimethylacetamide, 30% polyethylene glycol 400 (PEG), 50% polypropylene glycol (PPG) and 10% ethanol (1:3:5:1, v/v) for intravenous (iv) dosing at 10 mg/kg. The total volume of administration was 80 μL. Blood samples were collected post-dose in lithium heparin microvials via tail bleeding at predetermined intervals at 0.16, 0.5, 1, 3, 5, 8, 10 and 24 h. Samples were gently vortexed and stored at -80°C until analysis. • iv. Sample processing and analysis. […] The mixture was vortexed vigorously for 1 min, and 5 μL of the supernatant were injected onto the analytical column following centrifugation (5590 g for 5 min). A Shimadzu HPLC and reverse phase Gemini NX-C18 column coupled to an AB Sciex 3200 Q TRAP MS was operated at unit resolution in the multiple reaction monitoring (MRM) mode as described above. […] Data analysis. Drug concentration versus time plots for each compound were used to determine maximal drug concentration C max, time T max to reach C max, elimination half-life t 1/2 and the area under the concentration-time curve from time zero to infinity, AUC0-inf. From these values the PK parameters clearance CL, volume of distribution Vd and oral bioavailability BA were determined using the non-compartmental analysis Microsoft Excel Add-In PKSolver ([Zhang et al., 2010]).

A short description of data set [3]: Plasma protein binding, ultracentrifugation. The format is in vitro ADME. The conditions noted are these: pooled human plasma.
Procedure: Plasma protein binding. Plasma protein binding was determined in pooled human plasma using an ultracentrifugation method. Stock solutions of test compounds (10 mM) were diluted in phosphate buffer and spiked into plasma in deep well 96-well plates (10 µM). An aliquot of each compound was immediately precipitated with ice cold acetonitrile containing the internal standard carbamazepine (0.1 μM). These served as total concentration samples. After incubation in a water bath at 37°C for 1 h, the samples were transferred to ultracentrifuge tubes in duplicate and centrifuged for 4 h at 37°C and 30,000 g (Optima L-80XP, Beckman). Following centrifugation, the supernatant was transferred to the plate containing the total concentration samples and precipitated with ice cold acetonitrile containing the internal standard. Analyte concentrations of all compounds were determined via LC-MS/MS (reverse phase Gemini NX-C18 column and Shimadzu HPLC coupled with an AB Sciex 3200 Q TRAP MS) as described above. • vi.
Setting [4] is: 10 mg/kg, intravenous, whole blood.
The mark [5] stands for this setting: whole blood, iv, 10 mg/kg, intravenous, whole blood, read-out: t1/2 (converted).
[6] abbreviates: oral gavage: AD01 4.6, PhX6 4.5, DpNEt 5 mg/kg.

Each structure is given as a SMILES string. “And” between values parts separate entries of the source, which are not always exact repeats. Equal entries are not always repeated. Where two headings read alike, the source gives them in different places.

Broadly, the Cmax is the peak of the concentration-time curve. One may read the Tmax as the time from dosing to the highest level. Consider `CCN(CC)c1ccc2nc3ccc(=[N+](CC)CC)cc-3sc2c1` [AD01], for which the logD at 2 h in data set [1] is 0.2. In data set [2] (setting [4]), this compound showed a Vd of 16.2 ± 1.73 L/kg and a clearance of 74.4 ± 6.68 mL/min/kg. For the same compound, the half-life in data set [2] (setting [5]) is 151 ± 4.2 min. Moreover, in data set [2] (whole blood), the Cmax is 250 ± 50 nM and the Tmax amounted to 52.8 ± 7.8 min. The “AUC0-∞” value in data set [2] (intravenous, whole blood) turned out to be 186 ± 15 µmol·min/L. Besides, in data set [2], the “Oral Cmax relative to the IC50 value” is given as roughly 10 fold; the BA is 15% and 15 ± 4%. Further, the “AUC0-∞” value in data set [2] (setting [6]) was 101 ± 19 µmol·min/L.

Usually fraction unbound stands for free concentration divided by total concentration. Low readings indicate little free substance, high ones much free substance. Take `CCN(CC)c1ccc2nc3c4ccccc4/c(=N\c4ccccn4)cc-3oc2c1` [PhX6]: the logD at 2 h in data set [1] was 1. The compound also showed a fraction unbound at 1 h, 10 µM in data set [3] of 0.1. In addition, in data set [2] (setting [4]), the Vd was 14.9 ± 2.09 L/kg and the clearance turned out to be 21.5 ± 1.76 mL/min/kg. Further, the half-life in data set [2] (setting [5]) is 478 ± 43.8 min. Besides, the half-life in data set [2] (whole blood, two-compartment behaviour, read-out: Distribution half-life) was found to be 26 min. In addition, in data set [2] (whole blood), the highest level (Cmax) was 3450 ± 680 nM and the Tmax worked out at 48 ± 7.2 min. Also, in data set [2] (intravenous, whole blood), the “AUC0-∞” value came to 540 ± 44 µmol·min/L. For the same compound, in data set [2], the “Oral Cmax relative to the IC50 value” is roughly 100 fold; the BA is 60% and 60 ± 12%. For the same compound, the “AUC0-∞” value in data set [2] (setting [6]) was 1,150 ± 216 min∙µmol/L.
